Measurements published in patent US8609719B2, “Propargylated aminoindans, processes for preparation, and uses thereof” (priority 2006, dated 2013).
Counter-ions that a name gives are not always drawn. Like-named read-outs stand apart in the source and are kept apart here.

Columns and labels:
Recombinant human AChE = target: T1, Recombinant human AChE (Homo sapiens, UniProt P22303); experiment: Inhibition of acetylcholinesterase activity in vitro (Ellman, stopped time assay); format: biochemical; set-up: ki (bimolecular rate constant): unit not given here
T1 construct: purchased Sigma-Aldrich Israel C-1682
Description: Recombinant human AChE (C-1682), acetylthiocholine iodide (AcTh, A5771), bovine serum albumin (BSA, A-2153), and 5,5′-dithiobis(2-nitrobenzoic acid) (DTNB, D8130) were obtained from Sigma-Aldrich Israel. […] AChE was dissolved in phosphate buffer pH 8.0 containing 0.01% sodium azide NaAz and 1 mM EDTA and diluted to give a concentration of 15 units/ml. This solution was divided into aliquots of 0.5 ml, which were stored at −70° C. until use.
The inhibitory activity against AChE was determined by the method of Ellmann et al. (Biochemical Pharmacology, 1961 (7) 88-95) using AcTh as a substrate. To characterize the carbamoylation step, a traditional stopped time assay was performed, in which AChE was incubated at 37° C. with a minimum of 5 different concentrations of inhibitor in the assay buffer, and aliquots were transferred to an ELISA multiscan microplate reader (Labsystems) at various times for the determination of residual AChE activity, with Ascent PC software. The rate of reaction was measured at 412λ at 37° C. in 0.2 ml wells containing AChE 0.023 units per ml, DTNB 0.4-0.5 mM, AcTh 0.50 or 1 mM and BSA (0.05%) in 50 mM phosphate buffer as described above. Measurements were made every 5 min for up to 5 hours.
The inhibition of AChE by carbamates involves the formation of a reversible complex (EOH•CX), followed by carbamoylation of the enzyme to form (EOC) and a leaving group (HX). The carbamoylated enzyme is then hydrolyzed by water to regenerate the free enzyme (EOH).
The formation of the reversible complex is represented by the equilibrium constant: KD. For the carbamoylation phase of the inhibition process the unimolecular rate constant is represented by kmax, and the bimolecular rate constant by ki.

MAO-B [1] = target: T2, MAO-B (Rattus norvegicus, UniProt P19643); experiment: Inhibition of MAO activity in vitro (PEA substrate); format: biochemical
T2 construct: from tissue; host or cells: brain, liver and intestine (duodenum) of dosed rats
T2 sequence (P19643 1-520): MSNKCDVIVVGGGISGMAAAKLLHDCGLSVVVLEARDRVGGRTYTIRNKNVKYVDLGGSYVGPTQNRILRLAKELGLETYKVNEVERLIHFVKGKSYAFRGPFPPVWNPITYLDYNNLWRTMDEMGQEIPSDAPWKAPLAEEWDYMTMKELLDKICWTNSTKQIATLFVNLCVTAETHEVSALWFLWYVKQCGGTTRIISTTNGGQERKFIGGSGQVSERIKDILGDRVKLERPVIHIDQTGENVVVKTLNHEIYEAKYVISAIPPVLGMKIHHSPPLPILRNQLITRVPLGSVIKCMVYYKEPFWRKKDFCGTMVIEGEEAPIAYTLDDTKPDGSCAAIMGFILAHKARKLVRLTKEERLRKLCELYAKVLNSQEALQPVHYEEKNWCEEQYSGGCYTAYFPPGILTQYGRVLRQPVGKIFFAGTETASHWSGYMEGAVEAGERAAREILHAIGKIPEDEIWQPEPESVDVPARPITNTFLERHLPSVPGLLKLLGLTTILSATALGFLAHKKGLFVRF
Description: The MAO enzyme source was a homogenate of rat brain in 0.3M sucrose. The homogenate was diluted appropriately, and pre-incubated with serial dilutions of test compounds—diluted in phosphate buffer containing clogyline when 2-phenylethylamine (PEA) is the substrate, and diluted in phosphate buffer containing selegiline when 5-hydroxytryptamine (5-HT) is the substrate—for 60 minutes at 37° C. 14C-Labeled substrates (PEA for MAO-B determination and 5-HT for MAO-A determination) were then added, and the incubation continued for a further 20 minutes (PEA) or 30 minutes (5-HT). Substrate concentrations used were 10 μM (PEA) and 100 uM (5-HT). Enzyme concentration was chosen so that not more than 10% of the substrate was metabolized during the course of the reaction. Deaminated products were extracted into toluene-ethyl acetate (1:1 v/v) containing 0.4% (w/v) 2,5-diphenyloxazole (ppo) prior to determination by liquid scintillation counting. Radioactivity in the eluate indicated the production of neutral and acidic metabolites formed as a result of MAO activity. Activity of MAO in the sample was expressed as a percentage of control activity in the absence of inhibitor after subtraction of appropriate blank values. The activity determined using PEA as substrate is referred to as MAO-B, and that determined using 5-HT as MAO-A.
Concentrations of each inhibitor producing 50% inhibition of substrate metabolism (IC50) were calculated from the inhibition curves, and are shown in Table 1.

MAO-B [2] = target: T2, MAO-B; experiment: MAO-B inhibition in rat organs after chronic P.O. administration; format: in vivo; details: po, 7 days, 2 hours after last dose; for inhibition at 37.5 µmol/kg: 37.5 μmol/kg P.O. daily; for inhibition at 75 µmol/kg: 75 μmol/kg P.O. daily; for inhibition at 150 µmol/kg: 150 μmol/kg P.O. daily
Description: (§1) 30 rats were separated randomly into 5 testing groups of 6 rats each. Group 1 was the control group to which no drug was administered. Ethyl-hydroxymethyl-carbamic acid 3-R-(prop-2-ynylamino)-indan-5-yl ester fumarate (2:1) was administered to groups 2, 3, 4 in dosages of 150, 75, and 37.5 μmol/kg respectively, daily, perorally (“P.O.”) for seven consecutive days. Water was used as a vehicle.
(§2) Rats were sacrificed, out of sight of the other rats, 2 hours after the last administration. Brains were removed into Petri dishes on ice, the cerebellums were […], and the brains cut into halves for analysis. Livers and intestines were removed for MAO determination. Organs were homogenated for enzyme inhibition analysis.
(§3) The MAO inhibition after administration of ethyl-hydroxymethyl-carbamic acid 3-R-(prop-2-ynylamino)-indan-5-yl ester fumarate (2:1) in various organs is listed in Table 4 calculated in percent relative to the control group.

MAO = MAO inhibition in rat organs after chronic administration, overall conclusion; format: in vivo; details: rats, P.O. daily for seven days
Description: as §1, §2, §3

[3] = read-out: Brain MAO-B inhibition relative to control
[4] = read-out: Duodenum MAO-B inhibition relative to control
[5] = read-out: Liver MAO-B inhibition relative to control

T1 sequence (P22303 32-614): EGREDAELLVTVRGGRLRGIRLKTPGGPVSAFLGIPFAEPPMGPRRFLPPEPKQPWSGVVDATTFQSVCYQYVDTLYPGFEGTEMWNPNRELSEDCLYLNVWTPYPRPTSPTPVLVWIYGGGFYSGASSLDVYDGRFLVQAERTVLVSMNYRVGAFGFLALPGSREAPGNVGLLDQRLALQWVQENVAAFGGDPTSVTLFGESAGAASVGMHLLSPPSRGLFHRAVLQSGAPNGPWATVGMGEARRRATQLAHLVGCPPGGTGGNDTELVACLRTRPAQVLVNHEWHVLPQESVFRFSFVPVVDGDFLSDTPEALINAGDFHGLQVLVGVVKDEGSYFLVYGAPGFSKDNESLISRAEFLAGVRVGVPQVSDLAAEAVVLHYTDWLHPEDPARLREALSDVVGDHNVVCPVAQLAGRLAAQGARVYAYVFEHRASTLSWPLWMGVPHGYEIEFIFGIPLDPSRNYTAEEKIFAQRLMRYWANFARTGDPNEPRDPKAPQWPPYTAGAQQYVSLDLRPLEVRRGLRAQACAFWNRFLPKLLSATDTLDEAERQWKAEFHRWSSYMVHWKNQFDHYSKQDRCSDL

SMILES | inhibition of acetylcholinesterase, in words (Recombinant human AChE) | kmax (unimolecular carbamoylation rate constant) (Recombinant human AChE; AChE, 37° C.) | IC50 (MAO-B [1]) | ki (bimolecular rate constant) (Recombinant human AChE; AChE, 37° C.) | Kd (Recombinant human AChE; AChE, 37° C., read-out: KD (equilibrium constant of reversible complex)) | IC50 (MAO-B [1]; rat brain homogenate, PEA 10 μM, 60 minutes pre-incubation at 37° C., read-out: IC50 for MAO-B inhibition) | inhibition at 37.5 µmol/kg (MAO-B [2]; [3]) | inhibition at 37.5 µmol/kg (MAO-B [2]; [4]) | inhibition at 37.5 µmol/kg (MAO-B [2]; [5]) | inhibition at 75 µmol/kg (MAO-B [2]; [3]) | inhibition at 75 µmol/kg (MAO-B [2]; [4]) | inhibition at 75 µmol/kg (MAO-B [2]; [5]) | inhibition at 150 µmol/kg (MAO-B [2]; [3]) | inhibition at 150 µmol/kg (MAO-B [2]; [4]) | inhibition at 150 µmol/kg (MAO-B [2]; [5]) | organ selectivity of MAO inhibition, in words (MAO)
C#CCN[C@@H]1CCc2ccc(OC(=O)NC)cc21 [R-MCPAI, Methyl-carbamic acid 3-R-(prop-2-ynylamino)-indan-5-yl ester hydrochloride] | potent inhibitors | 0.435 min⁻¹ | 42 µM |  |  |  |  |  |  |  |  |  |  |  |  | 
C#CCN[C@@H]1CCc2ccc(OC(=O)N(CC)CO)cc21 [R-HCPAI, Ethyl-hydroxymethyl-carbamic acid 3-R-(prop-2-ynylamino)-indan-5-yl ester fumarate (2:1)] | weak inhibitor | 0.033 min⁻¹ |  | 0.106 ± 0.008 | 306 µM | 599 µM | 17% | 7% | 15% | 62% | 31% | 18% | 83% | 35% | 34% | brain-selective MAO inhibition
CNC(=O)Oc1ccc2c(c1)[C@H](N)CC2 [R-MCAI, Methyl-carbamic acid 3-R-amino-indan-5-yl ester hydrochloride] | potent inhibitors | 1.63 min⁻¹ | > 1000 µM |  |  |  |  |  |  |  |  |  |  |  |  | 
